# Measurements taken from US6369109B1, “Betulinic acid and derivatives thereof useful for the treatment of neuroectodermal tumor” (Deutsches Krebsforschungszentrum Stiftung des Offentlichen …, priority 1998, dated 2002).
# How the values were obtained:
# [1] = tested on: CD95-L and CD95 in SHEP cells transfected with Bcl-2, Bcl-XL or Neo; assay: Induction of CD95-L and CD95 (RT-PCR, Western blot, FACS); format: cell-based, human; conditions: 0.5 μg/ml Doxo or 10 μg/ml betulinic acid, 24 h, Bcl-2 or Bcl-XL cells, FIG. 13
# Experimental: Cells were stained with anti-APO-1 (CD95) IgGl monoclonal antibody (moab) (1 μg/ml; Trauth et al., 1989, Science 245:301-305) for 45 minutes at 4° C. followed by goat anti-mouse IgG-FITC (Immunotech, Hamburg, Germany) for 30 minutes at 4° C. FII23 IgGl antibody was used as an isotype matched non-binding antibody to control unspecific binding.
# Total RNA was prepared using the Qiagen total RNA kit (Qiagen, Hilden, Germany). RNA was converted to cDNA by reverse transcription and amplified for 38 cycles by PCR in a thermocycler (Stratagene, Heidelberg, Germany) using the Gene Amplification RNA-PCR kit (Perkin Elmer, Branchburg, N.J.) following the manufacturer's instructions. A 500-base pair fragment of CD95-L was amplified using primer 5′[…]3′ (SEQ ID:No 1) and 5′[…]3′ (SEQ ID NO:2) and a 311-base pair fragment of CD95 was amplified using primer 5′[…] […]
# CD95-L mRNA expression was determined by RT-PCR. […] CD95-L protein was detected as a Mr 37,000 band by mouse anti-CD9S-L moab and enhanced chemiluminescence.
# SHEP cells transfected with Bcl-2 or Bcl-XL or a neomycin resistance vector only (Neo) were treated (Lanes+) with 0.5 μg/ml Doxo or 10 μg/ml Bet A for 24 h. CD95 mRNA expression was determined by RT-PCR. […] For FACS analysis of CD95 protein expression (C), cells were stained with mouse anti-APO-1 moab followed Dy FITC-conjugated antimouse IgG antibody and analyzed by flow cytometry. […]
# [2] = tested on: cytochrome c in SHEP cells; assay: Drug-induced release of cyt c from mitochondria in cells (Western blot); format: cell-based, human; conditions: 0.5 μg/ml Doxo or 10 μg/ml Bet A; FIG. 16A
# Experimental: Cells were lysed for 30 mm at 4° C. in PBS with 0.5% Triton X (Serva, Heidelberg, Germany) and 1 mM PMSF (Sigma, Deisenhofen, Germany) followed by high-speed centrifugation. Membrane proteins were eluted in buffer containing 0.1 M glycine, pH 3.0 and 1.5 M Tris, pH 8.8. Protein concentration was assayed using bicinchoninic acid (Pierce, Rockford, Ill.). 40 μg protein per lane was separated by 12% or 15% SDS-PAGE and electroblotted onto nitrocellulose (Amersham, Braunschweig, Germany). Equal protein loading was controlled by Ponceau red staining of membranes. […]
# For isolation of mitochondria, cells (3×10^8 per sample) were washed twice with ice-cold PBS and resuspended with five volumes of buffer A (50 mM Tris buffer, 1 mM EGTA, 5 mM 2-mercaptoethanol, 0.2% BSA, 10 mM KH2PO4, pH 7.6, 0.4 M sucrose) and allowed to swell on ice for 20 min. […] The protein concentration of mitochondria or cytosolic extracts was determined by the Bradford method. […]
compound,measurement,setting,value
COc1cccc2c1C(=O)c1c(O)c3c(c(O)c1C2=O)C[C@@](O)(C(=O)CO)C[C@@H]3O[C@H]1C[C@H](N)[C@H](O)[C@H](C)O1 [doxorubicin],induction of CD95-L and CD95,[1],Both CD95-L and CD95 were induced at the mRNA and protein level
same,mitochondrial cytochrome c levels after stimulation,[2],mitochondrial cytochrome c levels declined
